Counter-ions that a name gives are not always drawn. Like-named read-outs stand apart in the source and are kept apart here. Each block holds one compound with its values, some of them ahead of it.
Molecular target: T1, His6-AspH315–758 (human aspartate/asparagine-β-hydroxylase, AspH) (Homo sapiens, UniProt Q12797)
T1 construct: N-Terminally His6-tagged human AspH315–758 (His6-AspH315–758) was produced in E. coli BL21 (DE3) cells; made in house; host or cells: E. coli BL21 (DE3), pET-28a(+) vector
T1 sequence (Q12797 315-758): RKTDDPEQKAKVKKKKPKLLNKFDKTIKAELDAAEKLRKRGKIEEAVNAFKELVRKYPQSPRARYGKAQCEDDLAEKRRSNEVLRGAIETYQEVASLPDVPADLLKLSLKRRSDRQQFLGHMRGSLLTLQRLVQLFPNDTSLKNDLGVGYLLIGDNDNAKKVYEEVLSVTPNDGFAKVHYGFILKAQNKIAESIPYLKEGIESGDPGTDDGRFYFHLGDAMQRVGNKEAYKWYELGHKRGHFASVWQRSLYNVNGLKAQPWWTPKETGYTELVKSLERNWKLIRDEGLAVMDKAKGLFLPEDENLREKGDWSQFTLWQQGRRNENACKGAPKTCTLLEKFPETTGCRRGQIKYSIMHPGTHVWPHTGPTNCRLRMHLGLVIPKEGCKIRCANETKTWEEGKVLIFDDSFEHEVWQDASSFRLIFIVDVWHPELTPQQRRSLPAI
Assay: SPE-MS AspH inhibition assay (LOPAC screen at fixed 20 μM and IC50 dose-response), hydroxylation of cyclic peptide hFX-CP101–119
Format: biochemical

[1] = LOPAC compound at fixed 20 uM, plate 1, normalised to DMSO and 2,4-PDCA controls
[2] = LOPAC compound at fixed 20 uM, substrate conversion, plate 1
[3] = LOPAC compound at 20uM, plate 3, conversion of substrate peptide
[4] = plate 5 (Pfitzer), test compounds at fixed 20 μM
[5] = plate 5 (Pfitzer), test compounds at fixed 20 μM, mean conversion DMSO 32.88
[6] = LOPAC compound at 20uM, plate 2, conversion of substrate peptide
[7] = LOPAC compound at 20uM, plate 2, normalised to DMSO and 2,4-PDCA controls, read-out: Plate 2 (% inhibition)
[8] = LOPAC Plate 4, compound at 20 uM, substrate conversion
[9] = LOPAC Plate 4, compound at 20 uM
[10] = LOPAC compound at 20uM, plate 2, normalised to DMSO and 2,4-PDCA controls
[11] = AspH activity, fixed compound concentration 20 μM, initial LOPAC screen, 0.5%v/v DMSO, read-out: Inhibition at 20 µM [%]

Compound: O.O=c1cc(-c2ccccc2)oc2c(O)c(O)ccc12 [7,8-Dihydroxyflavone hydrate, reference compound]
% conversion: 2.70%
inhibition at 20 µM: 99%
inhibition at 20 µM (read-out: Inhibition at 20 µM [%]): 99%

Plate 1 (% inhibition) [1]: -2.68%
Plate 1 (% conversion) [2]: 36.77%
Compound: Cl.Nc1ccn([C@@H]2O[C@H](CO)[C@@H](O)[C@@H]2O)c(=O)n1

Plate 1 (% inhibition) [1]: -0.20%
Plate 1 (% conversion) [2]: 35.94%
Compound: Ro 20-1724

Plate 1 (% inhibition) [1]: -4.07%
Compound: OC[C@H]1O[C@@H](n2cnc3c(NC4CCCC4)ncnc32)[C@H](O)[C@@H]1O [N6-Cyclopentyladenosine]

Plate 3 (% conversion) [3]: 29.75%
Compound: CCCCCc1ccc(/C=C/C(=O)Nc2cc(Cl)ccc2C(=O)O)cc1 [ONO-RS-082]

Plate 5 (% inhibition) [4]: 28.61%
Plate 5 (% conversion) [5]: 26.58%
Compound: CC(C)Nc1cccnc1N1CCN(C(=O)c2cc3cc(NS(C)(=O)=O)ccc3[nH]2)CC1 [Delavirdine]

Plate 2 (% conversion) [6]: 33.85%
inhibition at 20 µM [7]: 6.29%
Compound: CCOC(=O)Nc1ccc(NCc2ccc(F)cc2)nc1N [Flupirtine maleate]

Plate 3 (% conversion) [3]: 31.22%
Compound: NC(=O)C(=O)O [Sodium Oxamate]

Plate 5 (% inhibition) [4]: -0.64%
Plate 5 (% conversion) [5]: 36.53%
Compound: N[C@@H]1[C@H]2CN(c3nc4c(cc3F)c(=O)c(C(=O)O)cn4-c3ccc(F)cc3F)C[C@@H]12 [Trovafloxacin]

Plate 1 (% inhibition) [1]: -7.76%
Plate 1 (% conversion) [2]: 38.48%
Compound: NCCSSCCN [Cystamine dihydrochloride]

Plate 3 (% conversion) [3]: 37.53%
Compound: CNCCNS(=O)(=O)c1cccc2cnccc12.Cl.Cl [H-8 dihydrochloride]

Compound: C[C@H](CS)C(=O)N1CCC[C@H]1C(=O)O [Captopril]
Plate 1 (% conversion): 35.34%
Plate 1 (% inhibition): 1.58%

Plate 3 (% conversion) [3]: 9.94%
Compound: CC(N)(Cc1ccc(O)c(O)c1)C(=O)O (racemic)

Compound: CC(C)NCC(O)c1cc(O)cc(O)c1.CC(C)NCC(O)c1cc(O)cc(O)c1.O=S(=O)(O)O (centres unmarked) [Metaproterenol hemisulfate]
Plate 3 (% conversion) [3]: 40.68%

Plate 3 (% conversion) [3]: 40.48%
Compound: CCN(CC)CC#CCOC(=O)C(O)(c1ccccc1)C1CCCCC1 (centres unmarked) [Oxybutynin Chloride]

% conversion [8]: 34.08%
Compound: COc1cc2nc(N3CCN(C(=O)c4ccco4)CC3)nc(N)c2cc1OC [Prazosin hydrochloride]

Compound: Cl.NCCc1ccc(S(=O)(=O)F)cc1
Plate 1 (% conversion): 34.69%
Plate 1 (% inhibition): 3.52%

Plate 2 (% conversion) [6]: 38.17%
inhibition at 20 µM [7]: -6.62%
Compound: c1ccc(C2CC2)c(OCC2=NCCN2)c1 [Cirazoline hydrochloride]

Plate 1 (% inhibition) [1]: -14.63%
Plate 1 (% conversion) [2]: 40.78%
Compound: CCN(CC)CCCCCCCCOC(=O)c1cc(OC)c(OC)c(OC)c1.Cl [TMB-8 hydrochloride]

% inhibition [9]: -7.68%
% conversion [8]: 39.09%
Compound: Cc1ccc(/C(=C\CN2CCCC2)c2ccccn2)cc1.Cl [Triprolidine hydrochloride]

Plate 1 (% inhibition) [1]: -13.62%
Plate 1 (% conversion) [2]: 40.45%
Compound: Clc1nccc2c1ccc1ccccc12 [CBIQ]

Compound: Br.COc1ccc(-c2ccc(=N)n(CCCC(=O)O)n2)cc1 [SR-95531]
% conversion: 38.69%
% inhibition (20 µM): -6.50%

% conversion [8]: 24.79%
Compound: C1COC(NC(C2CC2)C2CC2)=N1 [Rilmenidine hemifumarate]

Compound: O=C(N[C@@H](Cc1ccccc1)C(=O)CCl)OCc1ccccc1 [Z-L-Phe chloromethyl ketone]
Plate 1 (% conversion): 35.86%
Plate 1 (% inhibition): 0.032%

Plate 2 (% conversion) [6]: 7.52%
Plate 2 (% inhibition) [10]: 84.92%
Compound: C[C@@](Cc1ccc(O)c(O)c1)(NN)C(=O)O [S-(-)-Carbidopa]

Compound: COc1ccc(/C=C/c2nc(NCCCN(C)C)c3ccccc3n2)cc1 [CP-31398]
Plate 5 (% conversion): 45.27%
Plate 5 (% inhibition): -26.30%

Plate 3 (% conversion) [3]: 40.01%
Compound: Cl.NCCS [Cysteamine hydrochloride]

Plate 3 (% conversion) [3]: 44.76%
Compound: COC(=O)C1=C(C)NC(C)=C(C(=O)OCCN(C)Cc2ccccc2)C1c1cccc([N+](=O)[O-])c1 (centres unmarked) [Nicardipine hydrochloride]

Plate 1 (% inhibition) [1]: -22.48%
Plate 1 (% conversion) [2]: 43.42%
Compound: Cl.Cl.Fc1ccc([C@@H]2CCNC[C@H]2COc2ccc3c(c2)OCO3)cc1.Fc1ccc([C@@H]2CCNC[C@H]2COc2ccc3c(c2)OCO3)cc1.O

Plate 1 (% inhibition) [1]: 2.78%
Plate 1 (% conversion) [2]: 34.94%
Compound: C[N+]1(C)[C@@H]2CC[C@H]1C[C@@H](OC(=O)C(CO)c1ccccc1)C2 (some centres unmarked) [Atropine methyl nitrate]

Plate 5 (% inhibition) [4]: 75.86%
Plate 5 (% conversion) [5]: 10.50%
Compound: c1cnc2cc3c(cc2n1)[C@@H]1CNC[C@H]3C1 [Varenicline]

% conversion [8]: 33.04%
Compound: COc1ccc(-c2cc3nccn3c(Nc3ncccc3C(N)=O)n2)cc1OC.Cl.O [BAY 61-3606 hydrochloride hydrate]

Compound: Nc1nc(N)c2nc(CNc3ccc(C(=O)N[C@@H](CCC(=O)O)C(=O)O)cc3)cnc2n1 [Aminopterin]
Plate 1 (% conversion): 36.60%
Plate 1 (% inhibition) [1]: -2.16%

Plate 5 (% inhibition) [4]: 37.56%
Plate 5 (% conversion) [5]: 23.53%
Compound: N#C/C(=C\c1cn(-c2ccccc2)c2ccccc12)C(=O)O [UK-5099]

% inhibition [9]: -11.63%
% conversion [8]: 40.44%
Compound: CC1CCN(CC[C@H]2CCCN2S(=O)(=O)c2cccc(O)c2)CC1.Cl [SB 269970 hydrochloride]

Plate 2 (% conversion) [6]: 19.78%
inhibition at 20 µM [7]: 48.3%
Compound: O=c1c(-c2ccc(O)cc2)coc2cc(O)cc(O)c12 [Genistein]

Compound: CN(C)C(=O)[C@H](O)[C@H](Cc1ccccc1)NC(=O)c1cc2cc(Cl)ccc2[nH]1 [CP-91149]
Plate 2 (% conversion): 37.12%
Plate 5 (% conversion): 35.66%
Plate 5 (% inhibition): 1.91%
Plate 2 (% inhibition) (20 µM): -3.47%

Compound: Nc1nc(OCc2ccccc2)c2nc[nH]c2n1 [O6-benzylguanine]
Plate 1 (% inhibition) [1]: -1.55%
Plate 1 (% conversion) [2]: 36.39%

% conversion [8]: 31.54%
Compound: O=c1[nH]c(=O)n(C2CCCO2)cc1F (centres unmarked) [Tegafur]

Plate 1 (% inhibition) [1]: 15.05%
Plate 1 (% conversion) [2]: 30.82%
Compound: Cl.NCCCCC(=O)O [5-Aminovaleric acid hydrochloride]

% conversion [8]: 34.30%
Compound: CN1C2CCCC1CC(NC(=O)c1nn(C)c3ccccc13)C2 (centres unmarked) [Granisetron hydrochloride]

% inhibition [9]: -11.19%
% conversion [8]: 40.29%
Compound: Nc1nc2c(ncn2[C@@H]2O[C@H](CO)[C@@H](O)[C@@H]2O)c(=O)[nH]1.O [Ara-G hydrate]

inhibition at 20 µM [11]: 98.3%
Plate 2 (% conversion) [6]: 3.05%
inhibition at 20 µM [7]: 98.3%
Compound: Oc1ccc(C2CNCCc3c2cc(O)c(O)c3Cl)cc1 (centres unmarked) [Fenoldopam bromide, reference compound]

Compound: Cl.NC1C=CC=C(C(=O)O)C1 (centres unmarked) [Gabaculine hydrochloride]
Plate 1 (% conversion): 33.90%
Plate 1 (% inhibition): 5.88%

Plate 1 (% inhibition) [1]: -13.14%
Plate 1 (% conversion) [2]: 40.29%
Compound: CCCC1O[C@@H]2C[C@H]3[C@@H]4CCC5=CC(=O)C=C[C@]5(C)[C@H]4[C@@H](O)C[C@]3(C)[C@]2(C(=O)CO)O1 (some centres unmarked) [Budesonide]

Plate 3 (% conversion) [3]: 35.04%
Compound: CNC(=O)[C@H]1O[C@@H](n2cnc3c(NCc4cccc(I)c4)ncnc32)[C@H](O)[C@@H]1O [IB-MECA]

Plate 3 (% conversion) [3]: 45.55%
Compound: LY-310,762 hydrochloride

Plate 2 (% conversion) [6]: 42.39%
Plate 2 (% inhibition) [10]: -19.21%
Compound: Cc1nn(-c2ccccc2)c(C)c1/C=N/N1CCN(Cc2ccccc2)CC1 [SANT-1]

Compound: Cl.Cl.Cn1cnc(CCN)c1 [1-Methylhistamine dihydrochloride]
Plate 3 (% conversion): 37.48%

Compound: CP(=O)(O)C1=CCNCC1 [TPMPA]
% conversion: 27.88%

inhibition at 20 µM [11]: 99.9%
Plate 3 (% conversion) [3]: 2.48%
Compound: Oc1cc(O)cc(/C=C/c2ccc(O)c(O)c2)c1 [Piceatannol, reference compound]

Plate 3 (% conversion) [3]: 38.14%
Compound: COc1ccc2c(c1OC)C(=O)O[C@@H]2[C@H]1c2c(cc3c(c2OC)OCO3)CCN1C.Cl [Noscapine hydrchloride]

Compound: CC(=O)[C@H]1CC[C@H]2[C@@H]3CC=C4C[C@@H](OS(=O)(=O)[O-])CC[C@]4(C)[C@H]3CC[C@]12C.[Na+] [Pregnenolone sulfate sodium]
% conversion: 34.01%
% inhibition (20 µM): 7.19%

% conversion [8]: 36.29%
inhibition at 20 µM (LOPAC Plate 4, compound at 20 uM, read-out: % inhibition): 0.53%
Compound: NCCCCNCCCN [Spermidine trihydrochloride]

inhibition at 20 µM [7]: 2.67%
Compound: NS(=O)(=O)c1cc(C(=O)O)c(NCc2ccco2)cc1Cl [Furosemide]

Plate 1 (% inhibition) [1]: 80.85%
Plate 1 (% conversion) [2]: 8.72%
Compound: CCN(CC)CCOCCOC(=O)C1(c2ccccc2)CCCC1 [Carbetapentane citrate]

Compound: COc1ccc(CCN(C)CCCC(C#N)(c2ccc(OC)c(OC)c2)C(C)C)cc1OC.Cl (racemic) [(±)-Verapamil hydrochloride]
% conversion: 42.64%
% inhibition (20 µM): -18.08%

— PMC7251097, “Aspartate/asparagine-β-hydroxylase: a high-throughput mass spectrometric assay for discovery of small molecule inhibitors” (Scientific Reports, 2020)
